Patent US20100286061A1, “PLASMIN-INHIBITORY THERAPIES” (priority 2004, published 2010)
Entries after “also recorded” stand apart in the source; their conditions may differ. Like-named read-outs stand apart in the source and are kept apart here. No end group written: not given here.

Key:
HUVECs = assay: Tube formation assay, HUVECs on collagen type I; type: cell-based, human; conditions: for IC50: total tube length, 16-18 hours, read-out: IC50 tube formation, HUVEC
Protocol: (§1) Tube formation assay: HUVECs were cultured on gelatin-coated culture dishes in RPMI medium. The cells (passage 2) were seeded at 8e4/well of a 96-well plate on collagen type I (1.5 mg/ml, SERVA) in their culture medium (EGM-2 complete medium supplemented with 10% FCS) and allowed to spread for 1 hour. The culture medium was then discarded and the cells were covered with a new layer of collagen type I (1.5 mg/ml, new preparation). […] Mouse endothelial cells (EC) (LEII cell line) were seeded at 2e4/well of a 96-well plate on GFR-Matrigel (BD) in their culture medium (IMDM supplemented with 10% FCS) in presence of a dose range of DX-1000 and incubated at 37° C./5% CO2 for 5 hours. Endothelial tube formation was assessed with an inverted photomicroscope (Analis). Microphotographs of the center of each well at low power (40×) were taken with a NIKON camera with the aid of imaging-capture software (NIKON). Tube formation in the microphotographs was quantitatively analyzed (total tube length) with METAVUE™ software (Universal Imaging Corporation). Tube formation by untreated HUVECs in full endothelial cell growth medium was used as a control. IC50 values were determined with SIGMAPLOT™.

[1] = Pharmacokinetics of iodinated protein in normal mice; type: in vivo; conditions: tail vein injection
Protocol: (§2) Labeling: we used […] protein and the Iodogen (Pierce) method, ˜1.7 mCi. Purification: we used D-salt polyacrylamide column and collected fractions, with total recovery ˜90%. We pooled high yield fractions for injections. Mice: we injected […] via tail vein. One time point/animal; four animals/time point. We used the following time points: no PEG at 0, 7, 15, 30, and 90 min. PEG at 0, 7, 15, 30, and 90 min, 4, 8, 16, and 24 hrs. We analyzed total plasma counts, used HPLC on Superose 12 (stability), and analyzed biodistribution. Rabbits: we injected 80 mg/animal via left ear vein. Blood was drawn from the right ear at following time points: no PEG at 0, 7, 15, 30, 90 min, 4, 8, 16, 24, 48, 72, and 96 hrs. PEG at 0, 7, 15, 30, 90 min, 4, 8, 16, 24, 48, 72, 96, 120, 144, 168, and 192 hrs. We preformed the following analyses: total plasma counts and HPLC on Superose 12 (stability) at 48, 72, 96, 120, 144, 168, and 192 hrs.

endothelial cells = assay: in vitro endothelial tubulogenesis (tube formation) assay, cell type not specified; type: cell-based; conditions: for inhibition of tubulogenesis / angiogenesis in vitro: qualitative
Protocol: as §1
DX-1000 was also tested for its activity in an in vitro endothelial tubulogenesis assay (“tube formation assay” described in Methods.). […]

SW480 cells = assay: Soft agar colony formation; type: cell-based, human; conditions: 0.1 to 50 μM
Protocol: We also evaluated DX-1000 in an assay to measure the sensitivity of human tumors to drugs before progressing to in vivo studies. SW-480 cells are grown in vitro in soft agar, reducing cell movement and allowing individual cells to develop into cell clones that are identified as single colonies. 3,000 SW480 cells were seeded into each well of six well plates. Each treatment was run in triplicate. Five 4× images were taken from each well for quantification using the […]® software.

[2] = system: plasmin-activated MMP-9 activity; assay: BIOTRAK assay kit, MMP-9 activity in HL60 conditioned media; type: cell-based; conditions: 1 μM, HL60, two days of culture
Protocol: In addition to gelatin zymography, we evaluated the plasmin inhibitors using the BIOTRAK® assay kit. HL60 were seeded at 4×10^5 cells/well (24 wells plate) in a serum free medium (UltraCulture medium). The day after, different conditions were evaluated: samples with and without activators of pro-MMP9 (Plasmin and pro-MMP-3) and samples with and without DX-1000 and 4-PEG-DX-1000 (1 μM). After two days of culture, conditioned media were collected an activity of MMP-9 was assessed using the BIOTRAK® assay kit. Assay time was approximately one hour under standard conditions. At a 1 μM concentration, DX-1000 and 4-PEG DX-1000 effected an approximately 68-70% reduction in plasmin-activated MMP-9 activity.

[3] = Allometric extrapolation of stability to humans; conditions: allometric extrapolations from mouse and rabbit
From the text: By allometric extrapolations, we should expect a stability of 9 days in humans.

HL-60 cells = assay: Apoptosis (caspase 3/7 activity, FACS), HL-60; type: cell-based; conditions: also FACS assay
Protocol: (§3) Apoptosis was evaluated using an assay for detecting caspase 3/7 activity using caspase 3/7 substrate. Apoptosis was also not detected using a FACS assay.

[4] = Pharmacokinetics of iodinated protein in rabbits; type: in vivo; conditions: rabbit, ear vein injection
Protocol: as §2

[5] = system: plasmin-mediated pro-MMP-9 activation in HL-60 cells; assay: Gelatin zymography of HL-60 conditioned media; type: cell-based; conditions: for inhibition of plasmin-mediated pro-MMP-9 activation: HL-60 cells, gelatin zymography, 1 μM, 48 hours
Protocol: (§4) Cell culture of tumor cell lines: HT-1080 (fibrosarcoma), and LNCaP (androgen-dependent prostate cancer) cell lines were grown to 80% confluence in Dulbecco's modified Eagle medium (DMEM) supplemented with 10% FCS, glutamine ([…]), sodium bicarbonate (2.1 g/l), ascorbic acid ([…]) and penicillin-streptomycin (P/S) (100 U/ml). LNCaP cells were stimulated with di-hydro-testosterone (DHT, 10 nM). Non-adherent HL-60 (acute myeloid leukemia) cell line was grown in RPMI medium supplemented with 20% FCS, glutamine 4 mM, sodium bicarbonate (1.5 g/l) and P/S (100 U/ml). Cultures were maintained at a cell concentration between 1e5 and 1e6/ml.
Gelatin zymography: HL-60 cells were cultured in serum-free medium (Ultraculture medium). Different conditions were considered: with and w/o DX-1000 at 1 μM; with or without pro-MMP-9 activators (plasmin+pro-MMP-3). Cells were cultured at 37° C./5% CO2 for 48 hours. Aliquots of conditioned media (CM) were then collected, clarified by centrifugation, mixed with electrophoresis sample buffer without reducing agent, and applied to 10% acrylamide gels containing gelatin (1 mg/ml). Active recombinant gelatinases served as standard. Samples were resolved at 20 mA, washed in 2% Triton X-100 for 1 hour and incubated at 37° C. for 16 hours in activation buffer containing 50 mM Tris-HCl, pH 7.4, 0.2 M NaCl, 5 mM CaCl2. After staining with Coomassie brilliant blue R-250, the gelatinolytic activities were detected as clear bands against the blue background.

[6] = system: Mouse endothelial cells (EC) (LEII cell line); assay: Tube formation assay, mouse endothelial cells (LEII) on GFR-Matrigel; type: cell-based; conditions: for IC50: total tube length, 5 hours
Protocol: as §1

SW-480 cells = assay: Apoptosis (caspase 3/7 activity, FACS), SW-480; type: cell-based, human; conditions: also FACS assay
Protocol: as §3

HT-1080 cells [7] = assay: Chemo-invasion through Matrigel, HT-1080 cells; type: cell-based
Protocol: as §4
(§5) Chemo-invasion: HT-1080 and LNCaP cells were seeded at 10^6/well in 24-well cluster plates and incubated overnight. They were then incubated in the presence of a dose range of DX-1000 for 24 hours. […] Chemo-invasion was assessed using Transwell cell culture chamber inserts (Becton Dickinson) with Growth Factor Reduced-[…]® (GFR-[…]®) coated filters. After trypsinization, cells were seeded in the upper part of the invasion chamber (1e4/insert). RPMI medium supplemented with 5% FCS and 1% BSA and NIH3T3 CM used as chemoattractants for HT-1080 and LNCaP cells, respectively. After 24 hours of incubation at 37° C., filters were removed from the chambers, stained, and the % of invading cells was evaluated. Each condition was performed in duplicate.

LNCaP cells = assay: Chemo-invasion through Matrigel, LNCaP cells (DHT-stimulated); type: cell-based
Protocol: as §4, §5

[8] = activated partial thromboplastin time (APTT)
platelet function = platelet function screening test
fibrinolysis = assay: Thrombelastography (TEG); conditions: 280-560 nM DX-1000
prothrombin time (PT) = conditions: concentrations>5.6 μM
human plasmin = human plasmin (Homo sapiens, UniProt P00747); assay: plasmin inhibition (Ki); type: biochemical
HT-1080 cells [9] = assay: Cell migration: scraping assay and Boyden chamber assay without Matrigel; type: cell-based; conditions: 1-10 μM in scraping assay
Protocol: Scraping assay: HT-1080 cells were seeded at 2e6/well in 6-well plates in complete medium. […] Cell layers were then scraped with a plastic tip.
The effect of DX-1000 on cell migration was evaluated using two different assays, the scraping assay and a Boyden chamber assay without Matrigel.

clot lysis = assay: clot lysis
Clauss fibrinogen assay = conditions: concentrations>5.6 μM
[10] = global coagulation screening tests (haemostasis in vitro)
[11] = DX-1000 1-10 nM, Matrigel or collagen type I

Chain of human plasmin (P00747 581-810 limits assumed): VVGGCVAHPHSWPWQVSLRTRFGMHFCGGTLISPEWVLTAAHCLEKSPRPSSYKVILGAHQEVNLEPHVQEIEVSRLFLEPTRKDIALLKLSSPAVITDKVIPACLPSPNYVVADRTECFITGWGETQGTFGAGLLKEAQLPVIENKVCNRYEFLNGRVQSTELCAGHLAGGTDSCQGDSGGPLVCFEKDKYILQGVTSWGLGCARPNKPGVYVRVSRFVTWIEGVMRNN
Chain of human plasmin (P00747 97-580 partner limits assumed): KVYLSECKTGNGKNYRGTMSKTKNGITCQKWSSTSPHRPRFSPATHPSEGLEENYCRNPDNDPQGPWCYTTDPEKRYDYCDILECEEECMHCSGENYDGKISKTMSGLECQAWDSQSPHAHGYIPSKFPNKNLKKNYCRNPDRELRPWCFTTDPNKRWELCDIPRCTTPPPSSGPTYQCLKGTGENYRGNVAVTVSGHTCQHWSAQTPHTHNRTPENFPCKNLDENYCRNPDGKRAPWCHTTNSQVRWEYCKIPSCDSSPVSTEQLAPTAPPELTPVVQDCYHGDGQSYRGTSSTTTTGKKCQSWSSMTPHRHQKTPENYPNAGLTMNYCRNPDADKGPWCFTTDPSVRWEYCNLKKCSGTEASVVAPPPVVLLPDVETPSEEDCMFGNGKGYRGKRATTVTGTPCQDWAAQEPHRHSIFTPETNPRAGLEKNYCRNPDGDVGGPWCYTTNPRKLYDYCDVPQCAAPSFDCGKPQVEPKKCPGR

## 4-PEG DX-1000: exemplary modified DX-1000 molecule that includes four PEG moieties (MHSFCAFKAETGPCRARFDRWFFNIFTRQCEEFIYGGCEGNQNRFESLEECKKMCTRD; cysteine pairing not given here; also: four PEG moieties, places not given here)
HUVECs
  IC50: 8.3 nM
[1]
  half-life: 13 h
Endothelial cells
  inhibition of tubulogenesis / angiogenesis in vitro: also inhibited tube formation
Endothelial cells; read-out: IC50 tube formation, cell type not given
  IC50: 0.98 ± 1.25 nM
SW480 cells
  colony formation by SW480 cells: did not inhibit colony formation
[2]
  reduction in plasmin-activated MMP-9 activity: 68-70%
[3]
  expected stability in humans: 9 days
HL-60 cells
  induction of apoptosis in HL-60 cells: do not induce apoptosis
[4]
  half-life: 59 h
[5]
  inhibition of plasmin-mediated pro-MMP-9 activation: 92%
[6]
  IC50: 15.8 nM
SW-480 cells
  induction of apoptosis in SW-480 cells: do not induce apoptosis

## DX-1000: Kunitz domain that inhibits human plasmin; framework region of human LACI; SEQ ID NO:22 or 23 (MHSFCAFKAETGPCRARFDRWFFNIFTRQCEEFIYGGCEGNQNRFESLEECKKMCTRD)
HT-1080 cells [7]
  concentrations effective at inhibiting invasion in vitro (HT-1080): effective at nanomolar and sub-nanomolar concentrations
  in vitro invasiveness of tumor cells (HT-1080): decreased in vitro invasiveness of tumor cells; also recorded: decreases the in vitro invasiveness of tumor cells
  potency in invasion assay compared with aprotinin (HT-1080): more potent inhibitor than aprotinin
HT-1080 cells [7]; DX-1000 1 nM
  inhibition of invasion of HT-1080 through Matrigel: inhibited
HUVECs; [11]
  tube formation of human endothelial cells: efficiently blocked tube formation
HUVECs; listed as DX-1000 (unmodified)
  IC50: 1.39 nM
[1]
  half-life: 0.45 h
Endothelial cells
  efficiency at inhibiting tube formation compared with aprotinin: at least as efficient as aprotinin
  inhibition of tubulogenesis / angiogenesis in vitro: decreased in vitro angiogenesis; also recorded: potent inhibitor of tubulogenesis in vitro
LNCaP cells
  concentrations effective at inhibiting invasion in vitro (LNCaP): effective at nanomolar and sub-nanomolar concentrations
  in vitro invasiveness of tumor cells (LNCaP): decreased in vitro invasiveness of tumor cells; also recorded: decreases the in vitro invasiveness of tumor cells
  potency in invasion assay compared with aprotinin (LNCaP): more potent inhibitor than aprotinin
LNCaP cells; DX-1000 1 nM
  inhibition of DHT-stimulated invasion of LNCaPs through Matrigel: inhibited
SW480 cells
  colony formation by SW480 cells: did not inhibit colony formation
[8]; 1.4-5.6 μM
  APTT clotting times versus normal range: remained within the normal range
[8]; higher doses (1.4-5.6 μM)
  effect on activated partial thromboplastin time (APTT): weak dose-dependent effect
Platelet function
  effects in platelet function screening test: no clinically significant effects
[2]
  reduction in plasmin-activated MMP-9 activity: 68-70%
fibrinolysis; two subjects with upper normal values
  fibrinolysis in thrombelastography (TEG): inhibition of fibrinolysis
fibrinolysis; tPA
  fibrinolysis in TEG with tPA: reduction in fibrinolysis
HL-60 cells
  induction of apoptosis in HL-60 cells: do not induce apoptosis
Prothrombin time (PT)
  effect on prothrombin time (PT): did not observe an effect
[4]
  half-life: about 1 h
[5]
  inhibition of plasmin-mediated pro-MMP-9 activation: 64%
[5]; qualitative
  MMP (gelatinase) expression and activation: inhibited plasmin-mediated MMP activation; also recorded: down-regulates MMP expression and activation; also recorded: down-regulated efficiently the expression and activation of gelatinases
Human plasmin
  Ki: 0.088 nM
[6]; [11]
  tube formation of mouse endothelial cells: efficiently blocked tube formation
[6]
  IC50: 16.6 nM
HT-1080 cells [9]
  two-dimensional migration of HT-1080 cells in vitro: did not inhibit migration; also recorded: does not inhibit
SW-480 cells
  induction of apoptosis in SW-480 cells: do not induce apoptosis
Clot lysis
  concentration at which inhibition of clot lysis was observed: > 700 nM
Clauss fibrinogen assay
  effect on Clauss fibrinogen assays: did not observe an effect
[10]
  effects in global coagulation screening tests / haemostasis in vitro: did not significantly influence haemostasis in vitro; also recorded: did not detect any clinically significant effects; also recorded: no clinically significant effects
